Patent US4647571A, “Cysteine delivery composition” (Cornell Research Foundation, priority 1982, dated 1987)
Values joined by “and” are separate entries in the source; they are usually repeats but may differ in a detail not shown here. Equal entries are not always repeated.

Experiments:
5-oxo-L-prolinase [1] = target: T1, 5-oxo-L-prolinase (Rattus norvegicus, UniProt P97608); test: Action of 5-oxo-L-prolinase on substrates (products formed); assay type: biochemical; details: for Products Formed: ADP: 5 mM ATP, 30 min at 37° C., pyruvate kinase-lactate dehydrogenase coupled assay; for Reaction on incubation with 5-oxo-L-prolinase: in the presence of ATP
T1 construct: 5-Oxo-L-prolinase was isolated from rat kidney and freed of 5-oxoproline by gel filtration; from tissue; host or cells: rat kidney
T1 sequence (P97608 1-1288): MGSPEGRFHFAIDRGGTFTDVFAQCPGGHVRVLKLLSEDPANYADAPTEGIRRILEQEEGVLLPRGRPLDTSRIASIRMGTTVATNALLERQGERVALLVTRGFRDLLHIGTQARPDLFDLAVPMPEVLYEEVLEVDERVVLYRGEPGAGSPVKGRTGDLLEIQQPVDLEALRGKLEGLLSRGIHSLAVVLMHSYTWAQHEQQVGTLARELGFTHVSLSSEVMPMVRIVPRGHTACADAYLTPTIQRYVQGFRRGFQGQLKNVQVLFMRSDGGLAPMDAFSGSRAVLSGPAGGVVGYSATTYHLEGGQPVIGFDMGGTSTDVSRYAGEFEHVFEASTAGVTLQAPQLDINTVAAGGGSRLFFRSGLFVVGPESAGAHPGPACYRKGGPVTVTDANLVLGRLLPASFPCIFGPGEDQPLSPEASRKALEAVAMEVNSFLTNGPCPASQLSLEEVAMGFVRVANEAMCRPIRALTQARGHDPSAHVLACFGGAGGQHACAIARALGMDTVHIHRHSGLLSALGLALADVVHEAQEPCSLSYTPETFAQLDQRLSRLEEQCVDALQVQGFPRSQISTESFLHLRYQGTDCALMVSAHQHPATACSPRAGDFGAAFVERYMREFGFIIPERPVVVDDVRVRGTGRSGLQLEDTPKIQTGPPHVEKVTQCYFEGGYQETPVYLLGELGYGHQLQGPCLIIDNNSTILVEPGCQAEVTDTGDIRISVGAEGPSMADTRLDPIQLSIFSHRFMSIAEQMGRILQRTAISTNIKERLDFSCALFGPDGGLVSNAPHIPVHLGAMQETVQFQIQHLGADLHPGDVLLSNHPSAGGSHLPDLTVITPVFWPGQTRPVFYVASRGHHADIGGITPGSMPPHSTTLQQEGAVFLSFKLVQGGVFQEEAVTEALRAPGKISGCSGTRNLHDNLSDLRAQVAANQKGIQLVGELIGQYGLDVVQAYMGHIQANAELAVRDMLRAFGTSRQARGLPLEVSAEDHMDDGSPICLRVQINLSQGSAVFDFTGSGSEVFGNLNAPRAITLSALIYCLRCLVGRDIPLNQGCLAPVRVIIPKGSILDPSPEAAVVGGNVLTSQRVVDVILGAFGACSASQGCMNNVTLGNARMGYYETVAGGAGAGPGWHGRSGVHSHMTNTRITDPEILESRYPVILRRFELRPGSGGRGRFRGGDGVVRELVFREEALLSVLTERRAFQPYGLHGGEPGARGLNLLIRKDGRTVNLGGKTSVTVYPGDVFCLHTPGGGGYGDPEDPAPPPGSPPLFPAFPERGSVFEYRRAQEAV
Method: (§1) In the experiments the reaction mixtures were made up to contain (final volume 0.5 ml) 100 mM Na Hepes (Na salt of N-2-hydroxyethylpiperizine-N'-2ethanesulfonic acid) buffer (pH 8.0), 150 mM KCl, 8 mM MgCl2, 2 mM phosphoenolpyruvate, 5 mM ATP (adenosine triphosphate), pyruvate kinase, in excess, 20 micrograms of 5-oxoprolinase, and the substrate as indicated.
(§2) The L-and D-isomers of 2-oxothiazolidine-4-carboxylate were synthesized by the method set out in Kaneko et al, Bull, Chem. Soc. (Japan) vol. 37, pp. 242-4 (1964) as modified by the method of Shah et al, Cancer Research vol. 39, pp. 3942-7 (1979). 5-Oxo-L-prolinase was isolated from rat kidney and freed of 5-oxoproline by gel filtration. Other chemicals and materials were obtained commercially.
(§3) After incubation ofr 30 min. at 37° C., the reaction mixtures were treated with 0.1 volume of 1 M HCl, and placed at 0° C. for 5 min.; and an equivalent volume of 1 M 2-amino-2-hydroxylmethyl-1,3,-propanediol was added. Portions were analyzed for amino acids by use of a Durrum Model 500 amino acid analyzer. Cysteine was also determined in some experiments by reaction with 5,5'-dithiobis (2-initrobenzoate) (DTNB).

5-oxo-L-prolinase [2] = target: T1, 5-oxo-L-prolinase; test: Inhibition of utilization of 5-oxo-L-proline (glutamate formation) by the purified enzyme; assay type: biochemical; details: 1 mM 5-oxo-L-proline
Method: as §1, §2, §3
Energy for the reaction is supplied by the cleavage of ATP. […] The ratio of ADP to cysteine produced increased with time due undoubtedly to the loss of cysteine due to oxidation.

hepatic glutathione = test: Hepatic glutathione level after injection; assay type: in vivo, mice; details: for hepatic glutathione level relative to controls: mice fasted overnight, 6.5 mmol/kilo intraperitoneally (D-isomer: equivalent doses)
Method: The effect of injecting mice with L-2-oxothiazolidine-4-carboxylate on the level of hepatic gluathione was studies. […] The maximal effect was observed about 4 hours after injection. […] These findings are indicative of in vivo formation of cysteine after administration of L-2- oxothiazolidine-4-carboxylate.
Mice fasted overnight were injected intraperitoneally with NaCl (controls; dashed line) or with Na L-2-oxothiazolidine-4-carboxylate (6.5 mmol/kilo). At intervals, the mice were sacrificed and the excised liver was homogenized in 5 volumes of 1% picric acid. After centrifugation, the protein-free supernatant solutions were analyzed for glutathione by the method of Tietze, Anal. Biochem 27, 502-22(1969). Analyses were carried out in duplicate. In a number of instances, these values were checked by the 2-vinylpyridine procedure of Griffith, Anal. Biochem. 106; 207-12(1980); good agreement between the two methods was observed. In the figure, the points are mean values and the bars indicate the average deviation from the mean. The numbers in parentheses give the number of animals used. The value for the controls was 4.40±0.9 umol/g.

5-oxoproline metabolism [3] = details: previous studies of the inventors; cited from earlier work
tissue cysteine = test: Tissue/liver cysteine after administration; assay type: in vivo, mice
5-oxoproline metabolism [4] = test: In vivo inhibition of 5-oxoproline metabolism (respiratory 14CO2 after 5-oxo-L-[14C]proline); parameters: species or system mice
Method: (§4) The in vitro results showing that L-2-oxothiazolidine-4-carboxylate inhibits utilization of 5-oxoproline were confirmed by in vivo experiments. In the latter, animals were injected with 5-oxo-L-[^14 C] proline and the respiratory [^14 CO2 ] produced was collected and measured for several hours. […] However, L-2- oxothiazolidine-4-carboxylate is a much more efficient inhibitor.
(§5) FIG. 3depicts the inhibition of 5-oxoproline metabolism by L-2- oxothiazolidine-4-carboxylate. Mice fasted overnight were injected intraperitoneally with NaCl (Curve 1; open symbols; controls) or with Na L-2-oxothiazolidine-4-carboxylate (2.5 mmol/kilo) (Curve 2; closed symbols). After 10 min., the mice were injected subcutaneously with 5-oxo-L-[^14 C] proline (A) or with L-[^14 C] glutamate (B) (0.02 mmol; 1.1×10^6 cpm). The mice were then placed in metabolic chambers and the respiratory CO2 was collected in ethanolamine/methanol, 1:4 (vol/vol). In A, each curve represents the results on 3 animals; the points are mean values and the bars represent standard deviations from the mean. In B, each curve represents the average of closely-agreeing results obtained from 2 animals.

liver glutathione = test: Hepatic glutathione in mice depleted of glutathione (acetoaminophenol); assay type: in vivo
Method: Administration of this compound therefore provides a way of getting cysteine into cells. One cannot give cysteine itself without complications since this amino acid is toxic extracellularly. However, when the L-oxothiazolidine compound is injected it enters the cell where it is split giving rise to cysteine within the cell. In a number of clinical situations, for example, after poisoning with excessive pain-killing drugs, e.g., those containing active ingredients known as N-acetyl-para-aminophenol, paracetamol, and acetaminophen, the liver glutathione levels decrease markedly. When cysteine is supplied to liver cells, additional glutathione can be synthesized and thus serve usefully in detoxifying the offending drug. Therefore, L-2-oxothiazolidine-4-carboxylate serves as an intracellular delivery system for cysteine and has potential as a therapeutic agent in situations in which there is depletion of liver glutathione. After acetoaminophenol is given to experimental animals such as mice, the liver glutathione declines rapidly because it is extensively utilized by reaction with the drug. […] For human treatment the L-isomer, preferably in the form of its neutral salt is administered directly into the gastro-intestinal tract or introduced intravenously.

metabolism of glutamate = test: In vivo metabolism of L-[14C]glutamate (respiratory 14CO2); details: mice, 2.5 mmol/kilo intraperitoneally
Method: as §4, §5

SMILES: O=C1CC[C@@H](C(=O)O)N1 [5-Oxo-L-proline, 5-oxo-L-proline]
- calculated Vmax value (5-oxo-L-prolinase [1]; compared with the L-isomer): higher than that found for the L-isomer
- Products Formed: ADP (5-oxo-L-prolinase [1]; substrate 2 mM): 924 nmol
- Products Formed: Amino Acid (as glutamate) (5-oxo-L-prolinase [1]; substrate 2 mM, as glutamate): 916 nmol

SMILES: O=C1N[C@@H](C(=O)O)CS1 [D-2-oxothiazolidine-4-carboxylate]
- Reaction on incubation with 5-oxo-L-prolinase (5-oxo-L-prolinase [1]): No reaction was observed
- Products Formed: ADP (5-oxo-L-prolinase [1]; substrate 5 mM): 96 nmol
- Products Formed: Amino Acid (5-oxo-L-prolinase [1]; substrate 5 mM, after reduction with KBH4 and reaction with iodoacetamide, footnote: less than 20 nmol): 0 nmol
- inhibition of glutamate formation (in words) (5-oxo-L-prolinase [2]; same conditions): did not inhibit glutamate formation
- hepatic glutathione level relative to controls (hepatic glutathione): No such stimulation was observed

SMILES: O=C1NC[C@@H](C(=O)O)N1 [L-2-imidazolidone-4-carboxylate]
- Products Formed: ADP (5-oxo-L-prolinase [1]; substrate 2 mM): 930 nmol
- Products Formed: Amino Acid (5-oxo-L-prolinase [1]; substrate 2 mM, footnote: less than 5 nmol): 0 nmol
- in vivo metabolism of 5-oxoproline (5-oxoproline metabolism [3]): markedly inhibits

SMILES: O=C1N[C@H](C(=O)O)CS1 [L-2-oxothiazolidine-4-carboxylate]
- apparent Km value (5-oxo-L-prolinase [1]; compared with the natural substrate): somewhat lower than that found for the natural substrate
- Reaction on incubation with 5-oxo-L-prolinase (5-oxo-L-prolinase [1]): rapid formation of ADP and cysteine
- Products Formed: ADP (5-oxo-L-prolinase [1]; substrate 2 mM): 478 nmol and 499 nmol
- Products Formed: Amino Acid (5-oxo-L-prolinase [1]; substrate 2 mM, after conversion to cystine): 463 nmol
- Products Formed: Amino Acid (5-oxo-L-prolinase [1]; substrate 2 mM, determined after reduction with KBH4 and reaction with iodoacetamide): 466 nmol
- inhibition at 1000 µM (5-oxo-L-prolinase [2]; inhibitor 1 mM): 73%
- inhibition at 5000 µM (5-oxo-L-prolinase [2]; inhibitor 5 mM): 92%
- inhibition at 10000 µM (5-oxo-L-prolinase [2]; inhibitor 10 mM): 97%
- hepatic glutathione level relative to controls (hepatic glutathione): about twice those of the controls
- time of maximal effect on hepatic glutathione after injection (hepatic glutathione; mice, 6.5 mmol/kilo intraperitoneally): about 4 hours
- cysteine content of tissues (tissue cysteine; administration to animals): increase in the cysteine content of tissues, especially the liver
- free cysteine in acid extracts of the livers (tissue cysteine; amino acid analysis after dithiothreitol reduction and 2-vinylpyridine derivatization): No free cysteine was detected
- formation of respiratory 14CO2 from 5-oxo-L-[14C]proline (5-oxoproline metabolism [4]; mice, 2.5 mmol/kilo intraperitoneally 10 min before label): marked decrease
- in vivo inhibitory activity relative to L-2-imidazolidone-4-carboxylate (5-oxoproline metabolism [4]; on a molar basis): at least four times more active
- injected 5-oxo-L-[14C]proline dose excreted in urine (5-oxoproline metabolism [4]; treated animals, none found in the urine of the controls): about 16 % of the injected dose
- liver glutathione after acetoaminophenol (liver glutathione; mice, given even two hours after the drug): an increase in liver glutathione occurs
- hepatic glutathione levels in mice depleted of hepatic glutathione (liver glutathione; mouse, in vivo): restoration of normal hepatic glutathione levels
- effect on the metabolism of glutamate (metabolism of glutamate): does not have a significant effect
